Results from publication PMC8292346, “Dysfunction of the key ferroptosis-surveilling systems hypersensitizes mice to tubular necrosis during acute kidney injury” (Nature Communications, 2021).
Values joined by “and” are separate entries in the source; they are usually repeats but may differ in a detail not shown here. Equal values may be shown once.

What was measured:
HT29 cells = experiment: TSZ-induced necroptosis, 7-AAD/annexin V flow cytometry; assay type: cell-based, human; conditions: Nec-1f 10 µM
Method: (§1) To induce necroptosis in a human cell line, HT29 cells were stimulated at the indicated time points with 20 ng/ml human TNFα (Biolegend), 1 μM SMAC-mimetics (Birinapant, Chemietek), and 20 μM zVAD-fmk (Selleckchem, herein referred to as zVAD). For the induction of necroptosis in NIH3T3 cells, cells were incubated with 20 ng/ml TNF-α and 20 μM zVAD for indicated time points. […] Cells were seeded in six-well plates or petri dishes. […] After indicated time points, cells were collected and prepared for flow cytometry, immunoblotting, and/or LDH release assays.
(§2) Cells were harvested and the pellets were washed twice in PBS and stained with 5 μl of 7-AAD (BD Biosciences) and 5 μl of annexin-V-FITC (BD Biosciences) added to 100 μl annexin-V binding buffer (BD Biosciences). After 15 min, cells were recorded on the LSRII with the FACS Diva 6.1.1 software (BD Biosciences) and subsequently analyzed with the FlowJo v10 software (Tree Star).

MLKL = experiment: Western blot of pMLKL (S358) in TSZ-treated HT29 cells; assay type: cell-based, human; conditions: Nec-1s 10 µM, Fer-1 1 µM, Nec-1f 10 µM
Method: as §1
(§3) Cells were lysed in ice-cold 10 mM Tris-HCl, pH 7.5, 50 mM NaCl, 1% Triton X-100, 30 mM sodium pyrophosphate, 50 mM NaF, 100 μM Na3VO4, 2 μM ZnCl2, and 1 mM phenylmethylsulfonyl fluoride (PMSF, modified Frackelton buffer) for 30 min on ice. Insoluble material was removed by centrifugation (14 000×g, 30 min, 4 °C). Protein concentration was determined using a commercial Bradford assay kit according to the manufacturer’s instructions (Thermo Fisher). Equal amounts of protein (typically 30 μg per lane) were resolved on a 4%−15% gradient SDS/PAGE gel and transferred to a PVDF membrane (BIO-RAD). Primary antibody incubation was performed for anti-pS166-RIPK1 (Cell Signaling, Cat# 65746, 1:1000 dilution), anti-pS358-MLKL, (Abcam, ab187091, 1:1000 dilution), anti-MLKL (Genetex, GTX107538, 1:1000 dilution) and anti-β-Actin (Cell Signaling, Cat# 3700S, 1:1000 dilution). Secondary antibodies (anti-mouse, HRP-linked antibody, Cell Signaling, Cat# 7076S; anti-rabbit, HRP-linked antibody, Cell Signaling, Cat# 7074S) were applied at concentrations of 1:5.000 (also see Supplementary Table 1 for details). Proteins were then visualized by enhanced chemiluminescence (ECL; Amersham Biosciences).

RIPK1 = experiment: Western blot of pRIPK1 (S166) in TSZ-treated HT29 cells; assay type: cell-based, human; conditions: Nec-1s 10 µM, Fer-1 1 µM, Nec-1f 10 µM
Method: as §1, §3

HT1080 cells [1] = experiment: Ferroptosis inducers (FINs)/ferroptocide, 7-AAD/annexin V flow cytometry; assay type: cell-based, human; conditions: Nec-1s 30 µM, Nec-1f 30 µM; for double-negative events (7-AAD/annexin V): alone (DMSO) or with Fer-1 1 µM
NIH3T3 cells [2] = experiment: as above; assay type: cell-based, murine; conditions: alone (DMSO) or with Fer-1 1 µM, Nec-1s 30 µM, Nec-1f 30 µM
Method: as §1, §2

NIH3T3 cells [3] = experiment: Simultaneous ferroptosis and necroptosis (RSL3 plus TZ), 7-AAD/annexin V flow cytometry; assay type: cell-based, murine; conditions: NIH3T3, 16 h
Method: as §1, §2

HT1080 cells [4] = experiment: CellTiter-Glo luminescent cell viability assay (ATP), dose-response; assay type: cell-based, human
Method: Cells were plated in an opaque-walled 96-well plate and treatment with ferroptosis inducers and/or ferroptosis inhibitors was initiated 24 h later. […] Here, the reaction agent was directly added to the wells, mixed on an orbital shaker for 2 min, and then incubated at room temperature for 10 min. The luminescence was detected using a Promega GloMax® instrument.

[5] = test system: Mouse cortical tubule cells (MCT); experiment: FINs/ferroptocide, 7-AAD/annexin V flow cytometry; assay type: cell-based; conditions: MCT, alone (DMSO) or with Fer-1 1 µM, Nec-1s 30 µM, Nec-1f 30 µM
Method: as §1, §2

CD10-135 cells = experiment: FINs/ferroptocide, LDH release assay; assay type: cell-based, human; parameters: LDH release: unit not given here; conditions: Nec-1f 30 µM
NIH3T3 cells [6] = experiment: Ferroptosis inducers (FINs)/ferroptocide, 7-AAD/annexin V flow cytometry; assay type: cell-based, murine; conditions: individual replicates
C57Bl/6 N mice = experiment: Bilateral kidney ischemia-reperfusion injury, severe model (38 min ischemia), survival; conditions: single dose 2 mg/kg body weight before reperfusion

**Q.** For `CN1C(=O)NC(Cc2c[nH]c3c(Cl)cccc23)C1=O` (stereo not drawn) [Nec-1s, necrostatin-1s], which “7-AAD/annexin V flow cytometry, source data of bar graph Fig2e” value (HT29 cells; HT29, TSZ (TNFα 20 ng/ml, birinapant 1 µM, zVAD-fmk 20 µM) 16 h) is on record?
**A.** 77% and 78.7% and 91.4% and 88.7%

**Q.** And the “Protection against TSZ-induced necroptosis (7-AAD/annexin V, words)” value (HT29 cells; HT29, TSZ)?
**A.** maintained double negativity

**Q.** And the “Phosphorylation of MLKL (pS358), western blot” value (MLKL)?
**A.** comparable between Nec-1s and Nec-1f

**Q.** What about the “Phosphorylation of RIPK1 at S166, western blot” value (RIPK1) of the same compound?
**A.** prevented phosphorylation at S166 in RIPK1

**Q.** And the “double-negative events (7-AAD/annexin V)” value (HT1080 cells [1]; HT1080, 1.13 µM RSL3 6 h)?
**A.** 45.5% and 30.5% and 56.9% and 58.4%

**Q.** What about the “double-negative events (7-AAD/annexin V)” value (HT1080 cells [1]; HT1080, 10 µM FIN56 24 h) of the same compound?
**A.** 88.1% and 85.1% and 82.1%

**Q.** What about the “double-negative events (7-AAD/annexin V)” value (HT1080 cells [1]; HT1080, 10 µM ferroptocide 24 h) of the same compound?
**A.** 42.7% and 26.5%

**Q.** What about the “Inhibition of cell death induction by FINs/ferroptocide” value (HT1080 cells [1]; HT1080, Fer-1 1 µM) of the same compound?
**A.** but not by Nec-1s

**Q.** And the “double-negative events (7-AAD/annexin V)” value (NIH3T3 cells [2]; NIH3T3, 5 µM erastin 24 h)?
**A.** 10.2% and 2.01% and 4.47% and 2.99%

**Q.** And the “double-negative events (7-AAD/annexin V)” value (NIH3T3 cells [2]; NIH3T3, 10 µM FIN56 24 h)?
**A.** 88.9% and 92.9% and 90.2%

**Q.** And the “double-negative events (7-AAD/annexin V)” value (NIH3T3 cells [2]; NIH3T3, 10 µM FINO2 24 h)?
**A.** 6.67% and 1.36% and 2.97% and 1.72% and 7.65% and 9.33%

**Q.** What about the “Rescue from necrosis induced by RSL3 plus TZ” value (NIH3T3 cells [3]) of the same compound?
**A.** fail to rescue

**Q.** And the “ATP luminescence (CellTiterGlo)” value (HT1080 cells [4]; HT1080 + Erastin, inhibitor concentration 0.01 (unit not given))?
**A.** 6.2776%

**Q.** And the “ATP luminescence (CellTiterGlo)” value (HT1080 cells [4]; HT1080 + Erastin, inhibitor concentration 0.1 (unit not given))?
**A.** 6.426%

**Q.** And the “ATP luminescence (CellTiterGlo)” value (HT1080 cells [4]; HT1080 + Erastin, inhibitor concentration 1 (unit not given))?
**A.** 6.611%

**Q.** What about the “ATP luminescence (CellTiterGlo)” value (HT1080 cells [4]; HT1080 + Erastin, inhibitor concentration 10 (unit not given)) of the same compound?
**A.** 6.739%

**Q.** What about the “ATP luminescence (CellTiterGlo)” value (HT1080 cells [4]; HT1080 + Erastin, inhibitor concentration 30 (unit not given)) of the same compound?
**A.** 13.0792%

**Q.** And the “ATP luminescence (CellTiterGlo)” value (HT1080 cells [4]; HT1080 + Ferroptocide, inhibitor concentration 0.01 (unit not given))?
**A.** 2.171% and 0.348%

**Q.** What about the “ATP luminescence (CellTiterGlo)” value (HT1080 cells [4]; HT1080 + Ferroptocide, inhibitor concentration 0.1 (unit not given)) of the same compound?
**A.** 7.287% and 1.309%

**Q.** And the “ATP luminescence (CellTiterGlo)” value (HT1080 cells [4]; HT1080 + RSL3, inhibitor concentration 0.01 (unit not given))?
**A.** 48.9951% and 58.0398%

**Q.** What about the “ATP luminescence (CellTiterGlo)” value (HT1080 cells [4]; HT1080 + RSL3, inhibitor concentration 0.1 (unit not given)) of the same compound?
**A.** 48.7049% and 62.3771%

**Q.** And the “ATP luminescence (CellTiterGlo)” value (HT1080 cells [4]; HT1080 + RSL3, inhibitor concentration 1 (unit not given))?
**A.** 60.6314% and 81.5005%

**Q.** What about the “ATP luminescence (CellTiterGlo)” value (HT1080 cells [4]; HT1080 + RSL3, inhibitor concentration 10 (unit not given)) of the same compound?
**A.** 61.8212% and 84.0786%

**Q.** What about the “double-negative events (7-AAD/annexin V)” value ([5]; 5 µM erastin 24 h) of the same compound?
**A.** 60.5% and 85.4% and 84.9% and 77.6%

**Q.** What about the “double-negative events (7-AAD/annexin V)” value ([5]; 10 µM FIN56 24 h) of the same compound?
**A.** 93.3% and 88% and 89.2%

**Q.** And the LDH release (CD10-135 cells; CD10-135, FIN56 alone (FIN) or with Fer-1, Nec-1s)?
**A.** 86.05 and 52.2984 and 63.7092

**Q.** And the LDH release (CD10-135 cells; CD10-135, FINO2 alone (FIN) or with Fer-1, Nec-1s)?
**A.** 71.57 and 72.5571 and 70.4933

**Q.** And the LDH release (CD10-135 cells; CD10-135, RSL3 alone (FIN) or with Fer-1, Nec-1s)?
**A.** 64.62 and 54.5823

**Q.** What about the LDH release (CD10-135 cells; CD10-135, erastin alone (FIN) or with Fer-1, Nec-1s) of the same compound?
**A.** 93.98 and 95.3511 and 88.9965

**Q.** What about the LDH release (CD10-135 cells; CD10-135, ferroptocide alone (FIN) or with Fer-1, Nec-1s) of the same compound?
**A.** 100 and 93.4978

**Q.** What about the “cells in 7-AAD/annexin V flow cytometry (FigS9b)” value (NIH3T3 cells [6]; Erastin-induced ferroptosis) of the same compound?
**A.** 17.0% and 14.0% and 10.0%

**Q.** And the “cells in 7-AAD/annexin V flow cytometry (FigS9b)” value (NIH3T3 cells [6]; FIN56-induced ferroptosis)?
**A.** 57.0% and 34.0%

**Q.** And the “cells in 7-AAD/annexin V flow cytometry (FigS9b)” value (NIH3T3 cells [6]; FINO2-induced ferroptosis)?
**A.** 63.0% and 21.0%

**Q.** And the “cells in 7-AAD/annexin V flow cytometry (FigS9b)” value (NIH3T3 cells [6]; Ferroptocide-induced cell death)?
**A.** 80.0% and 5.0%

**Q.** And the “cells in 7-AAD/annexin V flow cytometry (FigS9b)” value (NIH3T3 cells [6]; RSL3-induced ferroptosis)?
**A.** 71.0% and 41.0%

**Q.** And the “Survival after severe renal IRI vs vehicle (Kaplan-Meier, words)” value (C57Bl/6 N mice)?
**A.** not statistically significant
